Experiments:
[1] = molecular target: T1, human leukocyte elastase (HLE) (Homo sapiens, UniProt P08246); test: Inactivation of human leukocyte elastase: kon measured, Ki* = koff/kon calculated; assay type: biochemical; settings: Elastase; for kinact/KI: rate of inactivation kon = kobs/[I], value is kon x 10^-3, read-out: 10^-3 x kon
T1 sequence (P08246 30-267): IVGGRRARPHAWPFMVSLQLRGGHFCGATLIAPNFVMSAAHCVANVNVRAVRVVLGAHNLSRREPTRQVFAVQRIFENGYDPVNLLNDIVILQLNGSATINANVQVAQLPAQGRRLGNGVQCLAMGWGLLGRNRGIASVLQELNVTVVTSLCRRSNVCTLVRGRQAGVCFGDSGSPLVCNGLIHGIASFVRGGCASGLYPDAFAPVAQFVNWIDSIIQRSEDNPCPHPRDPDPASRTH
Experimental: (§1) Thus, instead of measuring a Ki, a Ki* is calculated which is defined as the ratio of the koff/kon, the rate of reactivation of the enzyme to the rate of inactivation of the enzyme. The values of koff and kon are measured and Ki* is then calculated.
(§2) The rate of inactivation, kon, of enzymatic activity was determined for the compounds tested by measuring the enzyme activity of an aliquot of the respective enzyme as a function of time after addition of the test compound. […] The rate of inactivation is then equal to kon =(kobs)/([I]) [formula] where [I] is the concentration of the inhibiting compound.
(§3) The reactivation constant, koff, is similarly determined and the inhibition constant, Ki*, is then calculated as Ki * = koff /kon [formula]

[2] = molecular target: α-Chymotrypsin (Bos taurus, UniProt P00766); test: Inactivation of α-chymotrypsin: kon measured, Ki* = koff/kon calculated; assay type: biochemical; settings: rate of inactivation kon = kobs/[I], value is kon x 10^-3
Experimental: as §1, §2, §3

Question: What does the source list for CC(=O)OCN1C(=O)c2c(C)cccc2S1(=O)=O [Example 1, 2-acetoxymethyl-4-methylsaccharin]?
Answer: kinact/KI [1]: 630 M⁻¹ s⁻¹; kinact/KI [2]: 1200 M⁻¹ s⁻¹

Question: For CC(=O)OCN1C(=O)c2c(Cl)cccc2S1(=O)=O [Example 2, 2-acetoxymethyl-4-chlorosaccharin], which kinact/KI [1] is on record?
Answer: 4900 M⁻¹ s⁻¹

Question: What about the kinact/KI [2] of the same molecule?
Answer: 2900 M⁻¹ s⁻¹

Question: Which kinact/KI [1] does the source give for O=C1c2c(Cl)cccc2S(=O)(=O)N1CCl [Example 3, 2-chloromethyl-4-chlorosaccharin] here?
Answer: 450000 M⁻¹ s⁻¹

Question: And the kinact/KI [2]?
Answer: 5800 M⁻¹ s⁻¹

Question: How did the kinact/KI [1] turn out when O=C1c2c(Cl)cccc2S(=O)(=O)N1Cn1nnn(-c2ccccc2)c1=S [Example 5, 4-chloro-2-(4-phenyl-5-thioxotetrazolin-1-ylmethyl)saccharin] was run?
Answer: 44000 M⁻¹ s⁻¹

Question: And the kinact/KI [2]?
Answer: 6000 M⁻¹ s⁻¹

Question: What does the source list for CC(=O)Nc1cccc(-n2nnnc2SCN2C(=O)c3ccccc3S2(=O)=O)c1 [Example 6, 2-[1-(3-acetamidophenyl)-1H-tetrazol-5-ylthiomethyl]saccharin]?
Answer: kinact/KI [1]: 5500 M⁻¹ s⁻¹; kinact/KI [2]: 3700 M⁻¹ s⁻¹

Question: What does the source list for Cn1nnnc1SCN1C(=O)c2ccccc2S1(=O)=O [Example 8, 2-(1-methyl-1H-tetrazol-5-ylthiomethyl)saccharin]?
Answer: Ki ([1]; Ki* = koff/kon, not a truly reversible inhibition constant): 81 nM; kinact/KI [1]: 1000 M⁻¹ s⁻¹; kinact/KI [2]: 2100 M⁻¹ s⁻¹

Question: How did the kinact/KI [1] turn out when O=C1c2ccccc2S(=O)(=O)N1C[S+]([O-])c1nnnn1-c1ccccc1 (stereo not drawn) [Example 10, 2-(1-phenyl-1H-tetrazol-5-ylsulfinylmethyl)saccharin] was run?
Answer: 7000 M⁻¹ s⁻¹

Question: What about the kinact/KI [2] of the same molecule?
Answer: 7000 M⁻¹ s⁻¹

Question: Which kinact/KI [1] does the source give for O=C1c2ccccc2S(=O)(=O)N1CS(=O)(=O)c1ccccc1 [Example 12, 2-(phenylsulfonylmethyl)saccharin] here?
Answer: 970 M⁻¹ s⁻¹

Question: And the kinact/KI [2]?
Answer: 1100 M⁻¹ s⁻¹

Question: What does the source list for O=C1c2ccccc2S(=O)(=O)N1C[S+]([O-])c1ncccn1 (stereo not drawn) [Example 13, 2-(2-pyrimidylsulfinylmethyl)saccharin]?
Answer: kinact/KI [1]: 300 M⁻¹ s⁻¹; kinact/KI [2]: 2600 M⁻¹ s⁻¹

Question: For O=C1c2ccccc2S(=O)(=O)N1CS(=O)(=O)c1ncccn1 [Example 14, 2-(2-pyrimidylsulfonylmethyl)saccharin], which kinact/KI [1] is on record?
Answer: 600 M⁻¹ s⁻¹

Question: What about the kinact/KI [2] of the same molecule?
Answer: 2800 M⁻¹ s⁻¹

Question: With O=C1c2c(-c3ccccc3)cccc2S(=O)(=O)N1CCl [Example 18, 2-chloromethyl-4-phenylsaccharin] as the molecule, how does the kinact/KI [1] read?
Answer: 1000 M⁻¹ s⁻¹

Question: What about the kinact/KI [2] of the same molecule?
Answer: 210 M⁻¹ s⁻¹

Question: Which kinact/KI [1] does the source give for O=C1c2ccccc2S(=O)(=O)N1/C=C/CSc1nnnn1-c1ccccc1 [Example 38, trans-2-[3-(1-phenyl-1H-tetrazol-5-ylthio)-1-propenyl]saccharin] here?
Answer: 43000 M⁻¹ s⁻¹

Reference: EP0471756B1, “SACCHARIN DERIVATIVES USEFUL AS PROTEOLYTIC ENZYME INHIBITORS AND PREPARATION THEREOF” (priority 1989, dated 1990)
